# Measured values taken from patent US8093287B2, “Inhibitors of matrix metalloproteinases” (University of Notre Dame du Lac, priority 2005, dated 2012).
# Like-named read-outs stand apart in the source and are kept apart here.
# How the values were obtained:
# MMP-3 [1] = biological target: T1, MMP-3 (Homo sapiens, UniProt P08254); assay: Enzyme kinetics, MMP inhibition (Example 1); assay type: biochemical
# Target sequence in this assay (P08254 100-477): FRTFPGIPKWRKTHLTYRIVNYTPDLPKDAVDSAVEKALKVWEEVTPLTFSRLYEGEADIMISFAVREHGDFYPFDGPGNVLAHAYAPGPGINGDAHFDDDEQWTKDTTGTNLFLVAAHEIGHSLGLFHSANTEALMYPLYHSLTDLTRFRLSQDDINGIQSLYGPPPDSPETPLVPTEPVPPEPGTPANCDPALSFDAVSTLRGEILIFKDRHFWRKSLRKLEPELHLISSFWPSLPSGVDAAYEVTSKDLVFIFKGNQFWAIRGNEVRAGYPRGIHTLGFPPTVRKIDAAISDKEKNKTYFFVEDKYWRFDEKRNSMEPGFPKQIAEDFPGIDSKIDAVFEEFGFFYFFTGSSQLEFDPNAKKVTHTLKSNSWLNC
# MMP-7 [2] = biological target: T2, MMP-7 (Homo sapiens, UniProt P09237); assay: Enzyme kinetics, MMP inhibition (Example 1); assay type: biochemical
# T2 sequence (P09237 95-267): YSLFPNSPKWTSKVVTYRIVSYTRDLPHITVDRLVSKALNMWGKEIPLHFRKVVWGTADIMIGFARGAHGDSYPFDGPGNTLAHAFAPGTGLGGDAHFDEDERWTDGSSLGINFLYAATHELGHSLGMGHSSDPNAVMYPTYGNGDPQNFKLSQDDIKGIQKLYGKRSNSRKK
# MMP-2 = biological target: T3, MMP-2 (Homo sapiens, UniProt P08253); assay: Enzyme kinetics, MMP inhibition (Example 1); assay type: biochemical; conditions: for Ki: for 1.3 with slow-binding component
# T3 sequence (P08253 110-660): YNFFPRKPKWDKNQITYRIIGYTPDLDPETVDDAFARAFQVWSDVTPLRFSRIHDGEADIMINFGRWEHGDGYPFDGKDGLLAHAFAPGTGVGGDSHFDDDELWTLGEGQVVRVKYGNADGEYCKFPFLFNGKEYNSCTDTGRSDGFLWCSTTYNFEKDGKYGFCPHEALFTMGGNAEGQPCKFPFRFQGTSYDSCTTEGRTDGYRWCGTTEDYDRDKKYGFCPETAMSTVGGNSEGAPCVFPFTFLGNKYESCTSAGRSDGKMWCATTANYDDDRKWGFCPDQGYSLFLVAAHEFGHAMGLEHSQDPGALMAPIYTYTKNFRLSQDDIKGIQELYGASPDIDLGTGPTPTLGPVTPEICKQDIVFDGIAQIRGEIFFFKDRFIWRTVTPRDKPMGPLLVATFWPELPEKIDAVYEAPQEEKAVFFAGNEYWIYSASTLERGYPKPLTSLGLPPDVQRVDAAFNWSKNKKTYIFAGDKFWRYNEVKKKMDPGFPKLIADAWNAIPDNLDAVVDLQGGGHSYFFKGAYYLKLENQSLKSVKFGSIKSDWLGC
# MMP-1 [3] = biological target: T4, MMP-1 (Homo sapiens, UniProt P03956); assay: Enzyme kinetics, MMP inhibition (Example 1); assay type: biochemical
# T4 sequence (P03956 100-469): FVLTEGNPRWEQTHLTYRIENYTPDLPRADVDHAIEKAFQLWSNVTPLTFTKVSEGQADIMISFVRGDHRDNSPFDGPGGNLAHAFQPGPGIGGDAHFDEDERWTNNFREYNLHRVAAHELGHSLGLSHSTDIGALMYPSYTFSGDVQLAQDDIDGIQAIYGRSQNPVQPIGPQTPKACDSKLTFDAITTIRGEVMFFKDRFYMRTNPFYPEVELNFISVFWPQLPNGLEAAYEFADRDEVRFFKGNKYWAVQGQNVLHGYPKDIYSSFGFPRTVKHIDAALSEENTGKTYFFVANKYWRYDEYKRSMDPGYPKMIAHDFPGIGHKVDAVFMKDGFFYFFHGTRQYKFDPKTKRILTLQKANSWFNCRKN
# MMP-14cat = biological target: T5, MMP-14cat (Homo sapiens, UniProt P50281); assay: Enzyme kinetics, MMP inhibition (Example 1); assay type: biochemical
# T5 construct: MMP-2 (A), MMP-9 (B) and MMP-14cat (C)
# MMP-9 [4] = biological target: T6, MMP-9 (Homo sapiens, UniProt P14780); assay: Enzyme kinetics, MMP inhibition (Example 1); assay type: biochemical
# Target sequence in this assay (P14780 94-707): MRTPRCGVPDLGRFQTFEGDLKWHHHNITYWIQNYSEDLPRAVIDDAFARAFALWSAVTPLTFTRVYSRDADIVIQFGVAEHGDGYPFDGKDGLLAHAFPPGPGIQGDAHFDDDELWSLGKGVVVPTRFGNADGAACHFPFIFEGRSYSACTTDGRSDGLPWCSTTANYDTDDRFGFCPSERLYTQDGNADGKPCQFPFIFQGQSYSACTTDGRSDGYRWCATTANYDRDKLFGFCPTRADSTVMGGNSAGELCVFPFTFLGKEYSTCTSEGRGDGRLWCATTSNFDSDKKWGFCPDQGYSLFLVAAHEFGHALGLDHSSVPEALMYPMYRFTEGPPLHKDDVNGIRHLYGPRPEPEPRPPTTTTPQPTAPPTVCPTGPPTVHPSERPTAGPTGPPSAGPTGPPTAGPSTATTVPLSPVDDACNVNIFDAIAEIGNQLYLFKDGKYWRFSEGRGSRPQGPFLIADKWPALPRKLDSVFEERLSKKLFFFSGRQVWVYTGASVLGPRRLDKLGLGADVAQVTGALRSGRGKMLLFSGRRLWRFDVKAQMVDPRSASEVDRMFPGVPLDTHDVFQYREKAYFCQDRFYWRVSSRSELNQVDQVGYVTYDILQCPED
# physchem = conditions: 37 °C, pH 7.5, aqueous with cosolvent or surfactant or cyclodextrin, kinetic from dmso stock
# HT1080 cells [5] = assay: Tumor cell invasion, Matrigel-coated Transwell; assay type: cell-based; conditions: Homo sapiens, HT-1080; 100 nM; Matrigel-coated filters, 18 h
# Protocol: (§1) FIG. 7 illustrates inhibition of HT1080 cell motility and invasion by inhibitor 2.3. A-B: Confluent cultures of HT1080 cells in 6-well plates were treated with mitomycin C (25 μg/ml) in serum-free DMEM media for 30 minutes. Scratch wounds were made on the monolayers and the wounded cultures were then incubated with serum-free DMEM supplemented without or with various amounts of inhibitor 2.3 (0-20 μM) for up to 20 hours. At each time period, the cultures were photographed (A) and the width of the scratch wound was measured as described under the Experimental Procedures section of Example 2. (C): HT1080 cells were seeded in 8-μm pore Transwell filters coated with Matrigel (50 μg/filter) in the presence or absence of inhibitor 2.3 (0.1-10 μM). The number of cells that invaded to the lower side of the filter was counted in three representative fields. Each value represents the mean±SE of four independent determinations. *P<0.05, and *P<0.001 when tested against the control using Tukey-Kramer Multiple Comparisons Test (P=0.004 by ANOVA).
# Tumor cell invasion was carried out in 8-μm pore Transwell inserts (Becton Dickinson, Boston, Mass.) coated with 50 μg Matrigel per filter. […] The cells that migrated to the lower side of the Matrigel-coated filter were fixed and stained with Diff-Quik® (Dade Behring Inc., Newark, Del.), and counted under a microscope in three different fields. […]
# MMP-7 [6] = biological target: T2, MMP-7; conditions: MMP-7, rapid competitive inhibition
# MMP-3 [7] = biological target: T1, MMP-3; conditions: MMP-3, rapid competitive inhibition
# Target sequence in this assay (P08254 100-272 limits assumed): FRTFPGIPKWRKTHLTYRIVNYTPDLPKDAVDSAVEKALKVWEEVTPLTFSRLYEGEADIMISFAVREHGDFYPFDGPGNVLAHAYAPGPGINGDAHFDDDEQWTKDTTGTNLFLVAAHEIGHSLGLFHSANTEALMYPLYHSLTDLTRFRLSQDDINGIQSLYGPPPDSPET
# MMP-1 [8] = biological target: T4, MMP-1; assay: biochemical
# MMP-9 [9] = biological target: T6, MMP-9; conditions: read-out: Ki of the slow-binding component
# Target sequence in this assay (P14780 107-707 limits assumed): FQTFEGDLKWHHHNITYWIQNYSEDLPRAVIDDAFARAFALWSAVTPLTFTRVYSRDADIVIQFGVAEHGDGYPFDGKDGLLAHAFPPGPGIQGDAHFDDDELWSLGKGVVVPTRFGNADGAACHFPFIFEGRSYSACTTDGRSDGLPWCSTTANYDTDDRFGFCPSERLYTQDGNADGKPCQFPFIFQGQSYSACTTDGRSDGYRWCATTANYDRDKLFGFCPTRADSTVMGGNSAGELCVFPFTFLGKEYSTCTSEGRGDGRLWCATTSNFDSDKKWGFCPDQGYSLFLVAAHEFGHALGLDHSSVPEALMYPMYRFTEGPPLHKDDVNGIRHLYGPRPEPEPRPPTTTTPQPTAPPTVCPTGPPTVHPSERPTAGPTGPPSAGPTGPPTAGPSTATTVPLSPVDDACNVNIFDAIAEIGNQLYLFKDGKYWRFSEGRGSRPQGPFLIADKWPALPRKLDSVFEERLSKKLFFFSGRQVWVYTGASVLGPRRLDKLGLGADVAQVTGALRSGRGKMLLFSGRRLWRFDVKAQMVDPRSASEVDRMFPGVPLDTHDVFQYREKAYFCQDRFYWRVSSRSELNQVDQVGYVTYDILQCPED
# MMP-14 [10] = biological target: T7, MMP-14 (Homo sapiens, UniProt P50281); conditions: MMP-14, slow-binding component, koff/kon
# HT1080 cells [11] = assay: Migration assay, scratch wound; assay type: cell-based, human
# Protocol: as §1
# Migration and Invasion Assays—For migration assays, HT1080 cells were cultured in 6-well plates in complete media until they reached confluence. […] The extent of wound closure in the presence or absence of inhibitor was quantified by measuring the width of the wound with a ruler using an amplified PowerPoint figure.
# HT1080 cells [12] = assay: Chemosensitivity assay (WST-1); assay type: cell-based, human; conditions: up to 10 μM, 18 hours
# Protocol: Chemosensitivity Assay—Cell viability after exposure of the cells to the inhibitors was assessed by 2-(4-iodophenyl)-3-(4-nitrophenyl)-5-(2,4-disulfophenyl)-2H-tetrazolium, monosodium salt (WST-1, Roche Diagnostics Gmbh, Mannheim, Germany) staining Briefly, HT1080 cells (2×10^4 cells/well) were seeded in 96-well culture plates in complete medium. After overnight culture, the medium was replaced with serum and phenol-free media containing 0.1% BSA and supplemented with or without inhibitor 2.3 (0-10 μM final concentrations). Control medium was supplemented with 1% DMSO. After 18 hours incubation, WST-1 (10 μL/well) was added and the difference in absorbance at 450 and 655 (reference filter) nm was measured using a Bio-Rad Benchmark microplate reader. Data were collected using the Microplate Manager software. The absorbance of blank wells containing control media but no cells (typically <5%) was subtracted. Each treatment was assayed in quadruplicate.
# MMP-9 [13] = biological target: T6, MMP-9; assay: biochemical
# Target sequence in this assay (P14780 107-707 limits assumed): as above
# MMP-7 [14] = biological target: T2, MMP-7; assay: biochemical
# MMP-14 [15] = biological target: T7, MMP-14; assay: biochemical
# MMP-3 [16] = biological target: T1, MMP-3; assay: biochemical
# Target sequence in this assay (P08254 100-272 limits assumed): as the sequence (P08254 100-272 limits assumed) above
# [17] = Assessment of inhibitor solubility; conditions: 37 °C, pH 7.5, aqueous with cosolvent or surfactant or cyclodextrin, kinetic from dmso stock
compound,measurement,setting,value
2-(4-{4-[(2-Thiiranylpropyl)sulfonyl]phenoxy}phenyl)acetic acid [Compound 1.4],Ki,MMP-3 [1],540 µM
same,Ki,MMP-7 [2],250 µM
same,Ki,MMP-2,0.46 µM
same,Ki,MMP-1 [3],4.5 µM
same,Ki,MMP-14cat,53 µM
same,Ki,MMP-9 [4],4.1 µM
"O=S(=O)(CC1CS1)c1ccc(Oc2ccccc2)cc1 (stereo not drawn) [Compound 2.1, reference compound]",solubility,physchem,80 µM
"CS(=O)(=O)Nc1ccc(Oc2ccc(S(=O)(=O)CC3CS3)cc2)cc1 (stereo not drawn) [Compound 2.3, {4-[4-(Methanesulfonamido)phenoxy]phenylsulfonyl}methylthiirane]",inhibition at 0.1 µM,HT1080 cells [5],> 25%
same,Ki,MMP-7 [6],295 ± 10 µM
same,solubility,physchem,340 µM
same,Ki,MMP-3 [7],3.6 ± 0.2 µM
same,Ki,MMP-1 [8],> 25 µM
same,Ki,MMP-9 [9],0.18 ± 0.05 µM
same,Ki,MMP-14 [10],0.9 ± 0.1 µM
same,migration in scratch wound assay,HT1080 cells [11]; 200 nM,slower migration
same,inhibition at 2 µM,"HT1080 cells [11]; Homo sapiens, HT-1080",80%
same,cell toxicity (WST-1),HT1080 cells [12],no evidence of cell toxicity
"O=[N+]([O-])c1ccc(Oc2ccc(S(=O)(=O)CC3CO3)cc2)cc1 (stereo not drawn) [Compound 2.4, [4-(4-Nitrophenoxy)phenylsulfonyl]methyloxirane]",Ki,MMP-9 [13],25 ± 5 µM
same,Ki,MMP-7 [14],130 ± 15 µM
same,Ki,MMP-1 [8],> 298 µM
same,Ki,MMP-14 [15],76 ± 13 µM
same,Ki,MMP-3 [16],> 190 µM
"O=[N+]([O-])c1ccc(Oc2ccc(S(=O)(=O)CC3CS3)cc2)cc1 (stereo not drawn) [Compound 2.5, [4-(4-Nitrophenoxy)phenylsulfonyl]methylthiirane]",Ki,MMP-9 [13],1 ± 0.1 µM
same,Ki,MMP-7 [14],153 ± 16 µM
same,Ki,MMP-1 [8],67 ± 18 µM
same,Ki,MMP-14 [15],4.9 ± 0.3 µM
same,solubility,[17],60 µM
same,Ki,MMP-3 [16],131 ± 9 µM
"CC(=O)Nc1ccc(Oc2ccc(S(=O)(=O)CC3CO3)cc2)cc1 (stereo not drawn) [Compound 2.6, [4-(4-Acetamidophenoxy)phenylsulfonyl]methyloxirane]",Ki,MMP-9 [13],34 ± 3 µM
same,Ki,MMP-7 [14],> 184 µM
same,Ki,MMP-1 [8],> 154 µM
same,Ki,MMP-14 [15],> 230 µM
same,Ki,MMP-3 [16],> 188 µM
"CC(=O)Nc1ccc(Oc2ccc(S(=O)(=O)CC3CS3)cc2)cc1 (stereo not drawn) [Compound 2.7, [4-(4-Acetamidophenoxy)phenylsulfonyl]methylthiirane]",solubility,physchem,540 µM
Methyl 2-(4-{4-[(2-Thiiranylpropyl)sulfonyl]phenoxy}phenyl)-acetate [Compound 1.3],Ki,MMP-3 [1],8.7 µM
same,Ki,MMP-7 [2],13 µM
same,"koff, slow-binding component of inhibition",MMP-2,(6.2 ± 0.7) × 10^−4 s^−1
same,"kon, slow-binding component of inhibition",MMP-2,(1.2 ± 0.3) 10^4 M^−1s^−1
same,Ki,MMP-2,0.05 ± 0.014 µM
same,Ki,MMP-1 [3],11 µM
same,Ki,MMP-14cat,0.59 ± 0.07 µM
same,Ki,MMP-9 [4],0.04 ± 0.002 µM
